Results from US6737383B1, “Herbicidal oxadiazolidines” (priority 1999, dated 2004).

Experiments:
[1] = system: giant foxtail; experiment: Test B pre/postemergence giant foxtail; format: in vivo, Setaria faberii
Procedure, shortened: (§1)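 Herbicidal effect was estimated by eye on a ten-point control scale after plants spent twelve to sixteen days in a greenhouse following soil or foliar treatment. Foliar sprays targeted plants at one to four leaves; all doses were formulated in a non-phytotoxic solvent with surfactant.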

[2] = system: rice; experiment: Test B flood test rice; format: in vivo, Oryza sativa; conditions: for Rice plant response rating (0 to 10 scale, 0 is no effect, 10 is complete control): Rate 125 g/ha, under heading Pre-emergence; for Rice plant response rating (0 to 10 scale, 0 is no effect, 10 is complete control) / Plant response rating, Rice (0 to 10 scale, 0 is no effect, 10 is complete control): flood test species, visual evaluation after twelve to sixteen days; for Plant response rating, Rice (0 to 10 scale, 0 is no effect, 10 is complete control): Rate 62 g/ha
Procedure, shortened: (§2)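 Plants were grown to the 2-leaf stage before treatment with test chemical, then held in a greenhouse for twelve to sixteen days. Injury was visually rated against untreated controls on a 0–10 scale, where 0 is no effect and 10 is complete control.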

[3] = system: bamyardgrass; experiment: Test B flood test barnyardgrass; format: in vivo, Echinochloa crus-galli; conditions: for Barnyardgrass plant response rating (0 to 10 scale, 0 is no effect, 10 is complete control): Rate 125 g/ha, under heading Pre-emergence; for Barnyardgrass plant response rating (0 to 10 scale, 0 is no effect, 10 is complete control) / Plant response rating, Barnyardgrass (0 to 10 scale, 0 is no effect, 10 is complete control): flood test species, visual evaluation after twelve to sixteen days; for Plant response rating, Barnyardgrass (0 to 10 scale, 0 is no effect, 10 is complete control): Rate 62 g/ha
Procedure, shortened: as §2

[4] = system: soybean; experiment: Test B pre/postemergence soybean; format: in vivo, Glycine max
Procedure, shortened: as §1

[5] = Postemergence, Rate 125 g/ha, scale of 0 to 10 where 0 is no effect and 10 is complete control
[6] = Postemergence, Rate 250 g/ha, scale of 0 to 10, 0 is no effect, 10 is complete control
[7] = Postemergence, Rate 500 g/ha, scale of 0 to 10 where 0 is no effect and 10 is complete control
[8] = Postemergence, Rate 1000 g/ha, scale 0 to 10 (0 no effect, 10 complete control)
[9] = Preemergence, Rate 125 g/ha, scale of 0 to 10 where 0 is no effect and 10 is complete control
[10] = Preemergence, Rate 500 g/ha, scale of 0 to 10 where 0 is no effect and 10 is complete control
[11] = Rate 1000 g/ha, Preemergence, scale 0 to 10 (0 no effect, 10 complete control)
[12] = Pre-emergence, Rate 1000 g/ha, scale 0 to 10 (0 no effect, 10 complete control)
[13] = Rate 250 g/ha, Pre-emergence (flood test species), scale 0 to 10, 0 is no effect, 10 is complete control
[14] = Rate 500 g/ha, Pre-emergence section of Table B, 0 to 10 scale (0 no effect, 10 complete control)
[15] = Postemergence, Rate 62 g/ha, scale 0 to 10, 0 is no effect, 10 is complete control
[16] = Preemergence, Rate 62 g/ha, scale 0 to 10 (0 no effect, 10 complete control)
[17] = Preemergence, Rate 250 g/ha, scale 0 to 10 (0 no effect, 10 complete control)
[18] = Preemergence, Rate 62 g/ha, scale of 0 to 10 where 0 is no effect and 10 is complete control

CCOP(=O)(Cn1c(=O)on(C(=O)N(c2ccc(F)cc2)C(C)C)c1=O)OCC [Compound 587]
2: Plant response rating, Giant foxtail [1, 7] | Soybean plant response rating [4, 10] | Plant response rating, Soybean [4, 11]
8: Giant foxtail plant response rating [1, 9]
4: Giant foxtail plant response rating [1, 8] | Plant response rating, Soybean [4, 5]
9: Giant foxtail plant response rating [1, 10]
10: Plant response rating, Giant foxtail [1, 11]
0: Plant response rating, Giant foxtail [1, 5] | Giant foxtail plant response rating [1, 6] | Rice plant response rating [2, 12] | Rice plant response rating (0 to 10 scale, 0 is no effect, 10 is complete control) [2] | Rice plant response rating [2, 13] | Rice plant response rating [2, 14] | Barnyardgrass plant response rating [3, 12] | Barnyardgrass plant response rating (0 to 10 scale, 0 is no effect, 10 is complete control) [3] | Barnyardgrass plant response rating [3, 13] | Barnyardgrass plant response rating [3, 14] | Soybean plant response rating [4, 9]
6: Soybean plant response rating [4, 6] | Plant response rating, Soybean [4, 7] | Soybean plant response rating [4, 8]

C=CCn1c(=O)on(C(=O)N(c2c(C)cccc2C)C(C)COC)c1=O (stereo not shown) [Compound 600]
4: Plant response rating, Soybean [4, 7] | Soybean plant response rating [4, 8]
3: Plant response rating, Giant foxtail [1, 7] | Giant foxtail plant response rating [1, 8] | Soybean plant response rating [4, 6] | Plant response rating, Soybean [4, 11]
2: Plant response rating, Soybean [4, 5]
0: Plant response rating, Giant foxtail [1, 5] | Giant foxtail plant response rating [1, 6] | Giant foxtail plant response rating [1, 9] | Plant response rating, Giant foxtail [1, 10] | Plant response rating, Giant foxtail [1, 11] | Rice plant response rating [2, 12] | Rice plant response rating (0 to 10 scale, 0 is no effect, 10 is complete control) [2] | Rice plant response rating [2, 13] | Rice plant response rating [2, 14] | Barnyardgrass plant response rating [3, 12] | Barnyardgrass plant response rating (0 to 10 scale, 0 is no effect, 10 is complete control) [3] | Barnyardgrass plant response rating [3, 13] | Barnyardgrass plant response rating [3, 14] | Soybean plant response rating [4, 9] | Plant response rating, Soybean [4, 10]

CCOC(=O)CC(C(=O)OCC)n1c(=O)on(C(=O)N(c2ccc(F)cc2)C(C)C)c1=O (stereo not shown) [Compound 615]
7: Plant response rating, Giant foxtail [1, 10]
0: Plant response rating, Giant foxtail [1, 15] | Plant response rating, Giant foxtail [1, 5] | Giant foxtail plant response rating [1, 16] | Giant foxtail plant response rating [1, 9] | Plant response rating, Giant foxtail [1, 17] | Plant response rating, Rice (0 to 10 scale, 0 is no effect, 10 is complete control) ([2]; Pre-emergence) | Rice plant response rating (0 to 10 scale, 0 is no effect, 10 is complete control) [2] | Rice plant response rating [2, 13] | Rice plant response rating [2, 14] | Plant response rating, Barnyardgrass (0 to 10 scale, 0 is no effect, 10 is complete control) ([3]; Pre-emergence) | Barnyardgrass plant response rating (0 to 10 scale, 0 is no effect, 10 is complete control) [3] | Barnyardgrass plant response rating [3, 13] | Barnyardgrass plant response rating [3, 14] | Soybean plant response rating [4, 16] | Soybean plant response rating [4, 9] | Plant response rating, Soybean [4, 17] | Plant response rating, Soybean [4, 10]
1: Plant response rating, Soybean [4, 15] | Plant response rating, Soybean [4, 5]
3: Soybean plant response rating [4, 6] | Plant response rating, Soybean [4, 7]
6: Giant foxtail plant response rating [1, 6] | Plant response rating, Giant foxtail [1, 7]

CCOC(Cn1c(=O)on(C(=O)N(c2ccc(F)cc2)C(C)C)c1=O)OCC [Compound 629]
7: Soybean plant response rating [4, 6]
9: Giant foxtail plant response rating [1, 6] | Plant response rating, Giant foxtail [1, 7]
0: Plant response rating, Rice (0 to 10 scale, 0 is no effect, 10 is complete control) ([2]; Pre-emergence) | Rice plant response rating (0 to 10 scale, 0 is no effect, 10 is complete control) [2] | Rice plant response rating [2, 13] | Rice plant response rating [2, 14] | Plant response rating, Barnyardgrass (0 to 10 scale, 0 is no effect, 10 is complete control) ([3]; Pre-emergence) | Barnyardgrass plant response rating (0 to 10 scale, 0 is no effect, 10 is complete control) [3] | Barnyardgrass plant response rating [3, 13] | Barnyardgrass plant response rating [3, 14] | Soybean plant response rating [4, 16] | Soybean plant response rating [4, 9] | Plant response rating, Soybean [4, 17] | Plant response rating, Soybean [4, 10]
10: Giant foxtail plant response rating [1, 9] | Plant response rating, Giant foxtail [1, 17] | Plant response rating, Giant foxtail [1, 10]
8: Plant response rating, Giant foxtail [1, 5] | Giant foxtail plant response rating [1, 16]
6: Plant response rating, Soybean [4, 5]
3: Plant response rating, Giant foxtail [1, 15]
4: Plant response rating, Soybean [4, 15]

CCOC(Cn1c(=O)on(C(=O)N(c2ccc(F)cc2F)C(C)C)c1=O)OCC [Compound 630]
9: Plant response rating, Giant foxtail [1, 7] | Giant foxtail plant response rating [1, 16]
2: Plant response rating, Giant foxtail [1, 15]
7: Plant response rating, Giant foxtail [1, 5]
5: Soybean plant response rating [4, 6]
10: Giant foxtail plant response rating [1, 9] | Plant response rating, Giant foxtail [1, 17] | Plant response rating, Giant foxtail [1, 10]
8: Giant foxtail plant response rating [1, 6]
4: Plant response rating, Soybean [4, 15]
0: Plant response rating, Rice (0 to 10 scale, 0 is no effect, 10 is complete control) ([2]; Pre-emergence) | Rice plant response rating (0 to 10 scale, 0 is no effect, 10 is complete control) [2] | Rice plant response rating [2, 13] | Rice plant response rating [2, 14] | Plant response rating, Barnyardgrass (0 to 10 scale, 0 is no effect, 10 is complete control) ([3]; Pre-emergence) | Barnyardgrass plant response rating (0 to 10 scale, 0 is no effect, 10 is complete control) [3] | Barnyardgrass plant response rating [3, 13] | Barnyardgrass plant response rating [3, 14] | Soybean plant response rating [4, 16] | Soybean plant response rating [4, 9] | Plant response rating, Soybean [4, 17]
3: Plant response rating, Soybean [4, 10]

CCOC(Cn1c(=O)on(C(=O)N(c2ccc(Cl)cc2)C(C)C)c1=O)OCC [Compound 633]
0: Plant response rating, Giant foxtail [1, 15] | Plant response rating, Giant foxtail [1, 5] | Plant response rating, Rice (0 to 10 scale, 0 is no effect, 10 is complete control) ([2]; Pre-emergence) | Rice plant response rating (0 to 10 scale, 0 is no effect, 10 is complete control) [2] | Rice plant response rating [2, 13] | Rice plant response rating [2, 14] | Plant response rating, Barnyardgrass (0 to 10 scale, 0 is no effect, 10 is complete control) ([3]; Pre-emergence) | Barnyardgrass plant response rating (0 to 10 scale, 0 is no effect, 10 is complete control) [3] | Barnyardgrass plant response rating [3, 13] | Barnyardgrass plant response rating [3, 14] | Soybean plant response rating [4, 16] | Soybean plant response rating [4, 9] | Plant response rating, Soybean [4, 17] | Plant response rating, Soybean [4, 10]
8: Plant response rating, Giant foxtail [1, 7]
9: Giant foxtail plant response rating [1, 9]
3: Giant foxtail plant response rating [1, 6]
10: Plant response rating, Giant foxtail [1, 17] | Plant response rating, Giant foxtail [1, 10]
6: Giant foxtail plant response rating [1, 16]
2: Plant response rating, Soybean [4, 15] | Plant response rating, Soybean [4, 5] | Soybean plant response rating [4, 6]

CC(C)N(C(=O)n1oc(=O)n(CC(=O)C2CCC2)c1=O)c1ccc(F)cc1 [Compound 640]
4: Plant response rating, Giant foxtail [1, 7]
0: Plant response rating, Giant foxtail [1, 15] | Plant response rating, Giant foxtail [1, 5] | Giant foxtail plant response rating [1, 6] | Plant response rating, Rice (0 to 10 scale, 0 is no effect, 10 is complete control) ([2]; Pre-emergence) | Rice plant response rating (0 to 10 scale, 0 is no effect, 10 is complete control) [2] | Rice plant response rating [2, 13] | Rice plant response rating [2, 14] | Plant response rating, Barnyardgrass (0 to 10 scale, 0 is no effect, 10 is complete control) ([3]; Pre-emergence) | Barnyardgrass plant response rating (0 to 10 scale, 0 is no effect, 10 is complete control) [3] | Barnyardgrass plant response rating [3, 13] | Barnyardgrass plant response rating [3, 14] | Plant response rating, Soybean [4, 15] | Plant response rating, Soybean [4, 5] | Soybean plant response rating [4, 6] | Soybean plant response rating [4, 18] | Soybean plant response rating [4, 9] | Plant response rating, Soybean [4, 17] | Plant response rating, Soybean [4, 10]
9: Giant foxtail plant response rating [1, 18] | Giant foxtail plant response rating [1, 9] | Plant response rating, Giant foxtail [1, 10]
10: Plant response rating, Giant foxtail [1, 17]

CC(C)N(C(=O)n1oc(=O)n(Cc2nnc(Cl)s2)c1=O)c1ccc(F)cc1F [Compound 645]
2: Plant response rating, Giant foxtail [1, 7] | Giant foxtail plant response rating [1, 9]
7: Plant response rating, Giant foxtail [1, 10]
5: Plant response rating, Giant foxtail [1, 17]
0: Plant response rating, Giant foxtail [1, 15] | Giant foxtail plant response rating [1, 5] | Giant foxtail plant response rating [1, 6] | Plant response rating, Rice (0 to 10 scale, 0 is no effect, 10 is complete control) ([2]; Pre-emergence) | Rice plant response rating (0 to 10 scale, 0 is no effect, 10 is complete control) [2] | Rice plant response rating [2, 13] | Rice plant response rating [2, 14] | Plant response rating, Barnyardgrass (0 to 10 scale, 0 is no effect, 10 is complete control) ([3]; Pre-emergence) | Barnyardgrass plant response rating (0 to 10 scale, 0 is no effect, 10 is complete control) [3] | Barnyardgrass plant response rating [3, 13] | Barnyardgrass plant response rating [3, 14] | Soybean plant response rating [4, 18] | Soybean plant response rating [4, 9] | Plant response rating, Soybean [4, 17] | Plant response rating, Soybean [4, 10]
1: Giant foxtail plant response rating [1, 18] | Plant response rating, Soybean [4, 15] | Soybean plant response rating [4, 5]
